Data: patent publication US20250120961A1, “P53 MODULATORS” (Nested Therapeutics, Inc., priority 2023, published 2025)
pEC50: −log10 of the molar value.

target: His-tagged p53-Y220C DNA binding domain (Homo sapiens, UniProt P04637, Y220C); test: Biochemical p53-Y220C and DNA binding assay (HTRF); conditions: inflection point of 10 points dose titration, 4 parameter curve fit; p53-Y220C DBD 100 nM, biotinylated dsDNA 200 nM, 27 to 29° C.; read-out: HTRF IP
Description: Biological Example 1. Biochemical p53-Y220C and DNA Binding Assay
The compounds of this invention can bind to p53-Y220C and increase the ability of the mutant p53 to bind to DNA at higher temperatures. His-tagged p53-Y220C DNA binding domain containing amino acid 94-312 is used to measure DNA binding activities in vitro with the sequence described below. (SEQ ID NO: 1: […]. Biotin labeled double strand DNA (dsDNA) containing consensus p53 binding sequence (SEQ ID NO: 2: Forward: 5′-(biotin)-[…]-3′; Reverse: 5′-(biotin)-[…]-3′) is used to measure protein-DNA binding activities. Compounds, His-tagged p53-Y220C DBD proteins (100 nM), and biotinylated dsDNA (200 nM) were mixed in ice-cold assay buffer containing DPBS, 20 mM NaCl, and 0.5% BAS, and incubated at 4° C. overnight in 384-well plate. Plates were transferred to incubator at 27 to 29° C. with constant shaking for 60 minutes. Equal volume of Homogeneous Time-Resolved Fluorescence (HTRF) dyes containing mAb anti-6HIS Tb cryptate gold and d2 labeled streptavidin in the assay buffer was added to each well and incubated at 27 to 29° C. with constant shaking for 60 minutes. The plate was read using Envision multimode plate reader. Reference compound 1 was used as high control and DMSO was used as low control. The percentage activation (A %) of protein-DNA binding by compounds was normalized by setting up high control (reference compound) as […] and low control (DMSO) as 0% (A %=(HTRF ratio of compound-HTRF ratio of low control)/(HTRF ratio of high control-HTRF ratio of low control)*500). 10 points dose titration curves for each compound were analyzed by 4 parameter curve fit and inflection point (IP) was reported. Reference compound 1 is shown below Table 1. Compounds of the invention are active in the HTRF assay. Data in Table 1 collected using Biological Example 1.

| Compound | pEC50 |
| --- | --- |
| CC[C@H](CO)O/N=C/c1sc2c(NC3CNCC3F)cccc2c1CC(F)(F)F (stereo in doubt) [Example 1-4, (E)-7-(((3S,4R)-4-fluoropyrrolidin-3-yl)amino)-3-(2,2,2-trifluoroethyl)benzo[b]thiophene-2-carbaldehyde O-((R)-1-hydroxybutan-2-yl) oxime] | < 6.00 |
| CC(O)(CO/N=C/c1sc2c(N[C@@H]3CNC[C@@H]3F)cccc2c1CC(F)(F)F)c1ccccc1 (stereo in doubt) [Example 1-24, (E)-7-(((3R,4S)-4-fluoropyrrolidin-3-yl)amino)-3-(2,2,2-trifluoroethyl)benzo[b]thiophene-2-carbaldehyde O-(2-hydroxy-2-phenylpropyl) oxime] | 6.00 to 7.00 |
| CC[C@@H](O)CO/N=C/c1sc2c(N[C@@H]3CNC[C@@H]3F)cccc2c1CC(F)(F)F [Example 1-1, (E)-7-(((3R,4S)-4-fluoropyrrolidin-3-yl)amino)-3-(2,2,2-trifluoroethyl)benzo[b]thiophene-2-carbaldehyde O-((R)-2-hydroxybutyl) oxime] | 6.00 to 7.00 |
| CC[C@@H](CO)O/N=C/c1sc2c(N[C@@H]3CNC[C@@H]3F)cccc2c1CC(F)(F)F [Example 1-2, (E)-7-(((3R,4S)-4-fluoropyrrolidin-3-yl)amino)-3-(2,2,2-trifluoroethyl)benzo[b]thiophene-2-carbaldehyde O-((S)-1-hydroxybutan-2-yl) oxime] | < 6.00 |
| CC[C@H](O)CO/N=C/c1sc2c(N[C@@H]3CNC[C@@H]3F)cccc2c1CC(F)(F)F [Example 1-3, (E)-7-(((3R,4S)-4-fluoropyrrolidin-3-yl)amino)-3-(2,2,2-trifluoroethyl)benzo[b]thiophene-2-carbaldehyde O-((S)-2-hydroxybutyl) oxime] | 6.00 to 7.00 |
| OC(CO/N=C/c1sc2c(N[C@@H]3CNC[C@@H]3F)cccc2c1CC(F)(F)F)C(F)(F)F (stereo partly drawn) [Example 1-5, (E)-7-(((3R,4S)-4-fluoropyrrolidin-3-yl)amino)-3-(2,2,2-trifluoroethyl)benzo[b]thiophene-2-carbaldehyde O-(3,3,3-trifluoro-2-hydroxypropyl) oxime] | 6.00 to 7.00 |
| OCC(O)CO/N=C/c1sc2c(N[C@@H]3CNC[C@@H]3F)cccc2c1CC(F)(F)F (stereo partly drawn) [Example 1-6, (E)-7-(((3R,4S)-4-fluoropyrrolidin-3-yl)amino)-3-(2,2,2-trifluoroethyl)benzo[b]thiophene-2-carbaldehyde O-(2,3-dihydroxypropyl) oxime] | 6.00 to 7.00 |
| CC(C)(O)CO/N=C/c1sc2c(N[C@@H]3CNC[C@@H]3F)cccc2c1CC(F)(F)F [Example 1-7, (E)-7-(((3R,4S)-4-fluoropyrrolidin-3-yl)amino)-3-(2,2,2-trifluoroethyl)benzo[b]thiophene-2-carbaldehyde O-(2-hydroxy-2-methylpropyl) oxime] | > 7.00 |
| NCC(O)CO/N=C/c1sc2c(N[C@@H]3CNC[C@@H]3F)cccc2c1CC(F)(F)F (stereo partly drawn) [Example 1-8, (E)-7-(((3R,4S)-4-fluoropyrrolidin-3-yl)amino)-3-(2,2,2-trifluoroethyl)benzo[b]thiophene-2-carbaldehyde O-(3-amino-2-hydroxypropyl)oxime] | 6.00 to 7.00 |
| NCC(CO)O/N=C/c1sc2c(N[C@@H]3CNC[C@@H]3F)cccc2c1CC(F)(F)F (stereo partly drawn) [Example 1-9, (E)-7-(((3R,4S)-4-fluoropyrrolidin-3-yl)amino)-3-(2,2,2-trifluoroethyl)benzo[b]thiophene-2-carbaldehyde O-(1-amino-3-hydroxypropan-2-yl) oxime] | < 6.00 |
| COCC(O)CO/N=C/c1sc2c(N[C@@H]3CNC[C@@H]3F)cccc2c1CC(F)(F)F (stereo partly drawn) [Example 1-10, (E)-7-(((3R,4S)-4-fluoropyrrolidin-3-yl)amino)-3-(2,2,2-trifluoroethyl)benzo[b]thiophene-2-carbaldehyde O-(2-hydroxy-3-methoxypropyl) oxime] | 6.00 to 7.00 |
| COCC(CO)O/N=C/c1sc2c(N[C@@H]3CNC[C@@H]3F)cccc2c1CC(F)(F)F (stereo partly drawn) [Example 1-11, (E)-7-(((3R,4S)-4-fluoropyrrolidin-3-yl)amino)-3-(2,2,2-trifluoroethyl)benzo[b]thiophene-2-carbaldehyde O-(1-hydroxy-3-methoxypropan-2-yl) oxime] | < 6.00 |
| OC1(CO/N=C/c2sc3c(N[C@@H]4CNC[C@@H]4F)cccc3c2CC(F)(F)F)CCNC1 (stereo partly drawn) [Example 1-12, (E)-7-(((3R,4S)-4-fluoropyrrolidin-3-yl)amino)-3-(2,2,2-trifluoroethyl)benzo[b]thiophene-2-carbaldehyde O-((3-hydroxypyrrolidin-3-yl)methyl) oxime] | 6.00 to 7.00 |
| OCC1(O/N=C/c2sc3c(N[C@@H]4CNC[C@@H]4F)cccc3c2CC(F)(F)F)CCNC1 (stereo partly drawn) [Example 1-13, (E)-7-(((3R,4S)-4-fluoropyrrolidin-3-yl)amino)-3-(2,2,2-trifluoroethyl)benzo[b]thiophene-2-carbaldehyde O-(3-(hydroxymethyl)pyrrolidin-3-yl) oxime] | < 6.00 |
| OC1(CO/N=C/c2sc3c(N[C@@H]4CNC[C@@H]4F)cccc3c2CC(F)(F)F)CCCC1 [Example 1-14, (E)-7-(((3R,4S)-4-fluoropyrrolidin-3-yl)amino)-3-(2,2,2-trifluoroethyl)benzo[b]thiophene-2-carbaldehyde O-((1-hydroxycyclopentyl)methyl) oxime] | 6.00 to 7.00 |
| OC1(CO/N=C/c2sc3c(N[C@@H]4CNC[C@@H]4F)cccc3c2CC(F)(F)F)CCCOC1 (stereo partly drawn) [Example 1-15, (E)-7-(((3R,4S)-4-fluoropyrrolidin-3-yl)amino)-3-(2,2,2-trifluoroethyl)benzo[b]thiophene-2-carbaldehyde O-((3-hydroxytetrahydro-2H-pyran-3-yl)methyl) oxime] | 6.00 to 7.00 |
| OCC1(O/N=C/c2sc3c(N[C@@H]4CNC[C@@H]4F)cccc3c2CC(F)(F)F)CCCOC1 (stereo partly drawn) [Example 1-16, (E)-7-(((3R,4S)-4-fluoropyrrolidin-3-yl)amino)-3-(2,2,2-trifluoroethyl)benzo[b]thiophene-2-carbaldehyde O-(3-(hydroxymethyl)tetrahydro-2H-pyran-3-yl) oxime] | < 6.00 |
| OC1CCCC1O/N=C/c1sc2c(N[C@@H]3CNC[C@@H]3F)cccc2c1CC(F)(F)F (stereo partly drawn) [Example 1-17, (E)-7-(((3R,4S)-4-fluoropyrrolidin-3-yl)amino)-3-(2,2,2-trifluoroethyl)benzo[b]thiophene-2-carbaldehyde O-(2-hydroxycyclopentyl) oxime] | 6.00 to 7.00 |
| OC1(CO/N=C/c2sc3c(N[C@@H]4CNC[C@@H]4F)cccc3c2CC(F)(F)F)CCC1 [Example 1-18, (E)-7-(((3R,4S)-4-fluoropyrrolidin-3-yl)amino)-3-(2,2,2-trifluoroethyl)benzo[b]thiophene-2-carbaldehyde O-((1-hydroxycyclobutyl)methyl) oxime] | 6.00 to 7.00 |
| OCC1(O/N=C/c2sc3c(N[C@@H]4CNC[C@@H]4F)cccc3c2CC(F)(F)F)CCC1 [Example 1-19, (E)-7-(((3R,4S)-4-fluoropyrrolidin-3-yl)amino)-3-(2,2,2-trifluoroethyl)benzo[b]thiophene-2-carbaldehyde O-(1-(hydroxymethyl)cyclobutyl) oxime] | 6.00 to 7.00 |
| OC1(CO/N=C/c2sc3c(N[C@@H]4CNC[C@@H]4F)cccc3c2CC(F)(F)F)CCOCC1 [Example 1-20, (E)-7-(((3R,4S)-4-fluoropyrrolidin-3-yl)amino)-3-(2,2,2-trifluoroethyl)benzo[b]thiophene-2-carbaldehyde O-((4-hydroxytetrahydro-2H-pyran-4-yl)methyl) oxime] | 6.00 to 7.00 |
| OCC1(O/N=C/c2sc3c(N[C@@H]4CNC[C@@H]4F)cccc3c2CC(F)(F)F)CCOCC1 [Example 1-21, (E)-7-(((3R,4S)-4-fluoropyrrolidin-3-yl)amino)-3-(2,2,2-trifluoroethyl)benzo[b]thiophene-2-carbaldehyde O-(4-(hydroxymethyl)tetrahydro-2H-pyran-4-yl) oxime] | < 6.00 |
| CC(O)(CO/N=C\c1sc2c(N[C@@H]3CNC[C@@H]3F)cccc2c1CC(F)(F)F)c1ccccc1 (stereo partly drawn) [Example 1-22, (Z)-7-(((3R,4S)-4-fluoropyrrolidin-3-yl)amino)-3-(2,2,2-trifluoroethyl)benzo[b]thiophene-2-carbaldehyde O-(2-hydroxy-2-phenylpropyl) oxime] | 6.00 to 7.00 |
| CC(CO)(O/N=C/c1sc2c(N[C@@H]3CNC[C@@H]3F)cccc2c1CC(F)(F)F)c1ccccc1 (stereo partly drawn) [Example 1-23, (E)-7-(((3R,4S)-4-fluoropyrrolidin-3-yl)amino)-3-(2,2,2-trifluoroethyl)benzo[b]thiophene-2-carbaldehyde O-(1-hydroxy-2-phenylpropan-2-yl) oxime] | < 6.00 |
